Results: ChEMBL document CHEMBL4007412, “Design, Synthesis, and Biological Evaluation of Mitochondria-Targeted Flavone-Naphthalimide-Polyamine Conjugates with Antimetastatic Activity” (J Med Chem, 2017)

What was measured:
SMMC-7721 = assay: Cytotoxicity against human SMMC7721 cells assessed as cell growth inhibition after 48 hrs by MTT assay; type: functional, cell-based; details: SMMC-7721, 48 h
[1] = Cytotoxicity against human QSG7701 cells assessed as cell growth inhibition after 48 hrs by MTT assay; type: cell-based; details: QSG7701, 48 h
HepG2 = assay: Cytotoxicity against human HepG2 cells assessed as cell growth inhibition after 48 hrs by MTT assay; type: functional, cell-based; details: HepG2, 48 h
H22 [2] = assay: Antitumor activity against […] xenografted in Kunming mouse assessed as suppression of tumor weight at 5 mg/kg, iv dosed every day starting from day 8 after tumor cell inoculation; type: functional
H22 [3] = assay: Antimetastatic activity against […] xenografted in pulmonary metastasis Kunming mouse model assessed as reduction in tumor metastatic nodules at 5 mg/kg, iv dosed every day starting from day 8 after tumor cell inoculation; type: functional; parameters: scale not given: the % may be the effect or the level left

| SMILES | IC50 (SMMC-7721) [µM] | IC50 [1] [µM] | IC50 (HepG2) [µM] | Activity (H22 [2]) [%] | Activity (H22 [3]) [%] |
| --- | --- | --- | --- | --- | --- |
| O=C1c2cccc3c(-c4cc(=O)c5ccccc5o4)ccc(c23)C(=O)N1CCCN1CCOCC1 | 31.6 | 47.7 | > 50 |  |  |
| O=C1c2cccc3c(-c4cc(=O)c5ccccc5o4)ccc(c23)C(=O)N1CCCN1CCNCC1 | 43.5 | 34.7 | > 50 |  |  |
| CCCCN(CCCC)CCCN1C(=O)c2cccc3c(-c4cc(=O)c5ccccc5o4)ccc(c23)C1=O | 16.5 | > 50 | 18.9 |  |  |
| CCCCNCCCCN1C(=O)c2cccc3c(-c4cc(=O)c5ccccc5o4)ccc(c23)C1=O | 10.9 | 16.1 | 10.1 |  |  |
| NCCCNCCCNCCCN1C(=O)c2cccc3c(-c4cc(=O)c5ccccc5o4)ccc(c23)C1=O | 11.3 | 17.4 | 14.7 |  |  |
| O=C1c2cccc3c(-c4cc(=O)c5ccccc5o4)ccc(c23)C(=O)N1CCCCN1CCNCC1 | 16.6 | 16.9 | 15.5 |  |  |
| NCCCCNCCCN1C(=O)c2cccc3c(-c4cc(=O)c5ccccc5o4)ccc(c23)C1=O | 11.1 | 41.8 | 9.84 |  |  |
| CN(C)CCN1C(=O)c2cccc3cc(N)cc(c23)C1=O [AMONAFIDE] | 9.95 | 7.84 | 10.1 | 48.1 | 41.4 |
